Assay results published in US20020049151A1, “Therapeutic approaches to diseases by suppression of the NURR subfamily of nuclear transcription factors” (priority 2000, published 2002).
Ends that are not written are not given here.

Columns and labels:
NURR1 mRNA [1] = assay: Northern blot of NURR1 mRNA in synovium explants; type: cell-based, human; details: CRH 10^−8 M
Procedure: (§1) To determine whether the NURR subfamily contribute to CRH signaling in a pathological context, freshly excised RA (FIG. 4A) and PsA synovium explants were incubated with CRH (10^−8 M) and examined for its ability to induce expression of NURR1 and NUR77 transcripts. […] Furthermore, analysis of synovium explants indicates higher endogenous and CRH-inducible NURR1 mRNA compared to NUR77 transcript levels.
(§2) In FIG. 4 total RNA was extracted and northern blot analysis was performed. Filters were hybridized with a cDNA for NURR1 or NUR77 and also with GAPDH to control for loading and transfer. Synovial explants were left untreated [C] or incubated with 10^−8M CRH for the indicated times. (FIG. 4A) Confluent monolayers of primary synoviocytes were left untreated [C] or pretreated with 10^−8M dexamethasone (DEX) for 2 h prior to the addition of 25μM forskolin (FOR) or 20 ng/ml of phorbal myristic acetate (PMA). (FIG. 4B)
(§3) For FIG. 6 each membrane was reprobed with a GAPDH cDNA to control for loading and transfer. NURR1 mRNA levels were measured by northern analysis using total RNA extracted from synoviocytes left untreated [C] or cultured for the time indicated with (A) TNFα (10 ng/ml) in the presence or absence of pre-treatment with 10^−8M dexamethasone (DEX). (B) IL-1β(10 ng/ml) in the presence or absence of pretreatment with 2 μM indomethacin (INDO) or 10^−8M DEX. (C) or synovial explants cultured with IL-6 (10 ng/ml). (D) 1 μM PGE2. (E) 25 μM forskolin (FOR) or […] for 1h in the absence or presence of 5 µg/ml cycloheximide (CHX).
(§4) Total RNA was isolated from cultured primary synoviocytes or synovial explants. RNA was quantitated by UV absorption and 10 μg of total RNA were electrophoresed on a standard northern gel and transferred to nylon membrane (BioRad, Richmond, Calif.). NURR1 and NUR77 cDNA probes (Murphy and Conneely, 1997), spanning the amino terminal region to avoid cross-hybridization, were radiolabeled to a high specific activity using [α-^32P] dCTP and a random primer labeling system (Promega, Madison, Wis.). Blots were exposed to film at −80° C. using intensifying screens and autoradiographic intensity was quantitated using an imaging densitometer.

NUR77 mRNA [2] = assay: Northern blot of NUR77 mRNA in synovium explants; type: cell-based, human; details: CRH 10^−8 M
Procedure: as §1, §2, §4

NURR1 mRNA [3] = assay: Northern blot of NURR1 mRNA in primary synoviocytes; type: cell-based, human; details: for NURR1 mRNA levels after stimulation: 20 ng/ml PMA, 10 ng/ml TNFα, IL-1β, IL-6, 1 μM PGE2, CRH; for effect on IL-1β-induced NURR1 mRNA: IL-1β 10 ng/ml, indomethacin 2 μM
Procedure: (§5) Regulation of gene expression by the protein kinase A and C pathways represent important signaling events in RA synoviocytes (Ben-Av et al., 1995; Crofford et al., 1994; Firestein and Manning, 1999). […] To investigate the involvement of the protein kinase C signaling pathways in NURR regulation, synoviocytes were treated with phorbal myristic acetate (PMA). […] In contrast, dexamethasone had little effect on forskolin- or PMA-induced NUR77 levels.
as §2
Therefore the pathological importance of the NURR transcription factors in inflammatory joint disease was further examined by determining the ability of pro-inflammatory agonists to regulate NURR transcript levels in primary synoviocytes and synovium explant tissue (FIG. 6).
as §3
Northern analysis of primary RA synoviocytes were untreated (lane 1) or treated for 1 hour with TNFα (lane 2), IL-1β (lane 3), and PGE2 (lane 4). TNFα and IL-1β were used at a concentration of 10 ng/mL and PGE2 was at a concentration of 10^-6 M.
as §4

NUR77 mRNA [4] = assay: Northern blot of NUR77 mRNA in primary synoviocytes; type: cell-based, human; details: 25 μM forskolin, 20 ng/ml PMA, CRH
Procedure: as §5
In FIG. 4 total RNA was extracted and northern blot analysis was performed. Filters were hybridized with a cDNA for NURR1 or NUR77 and also with GAPDH to control for loading and transfer. Synovial explants were left untreated [C] or incubated with 10^−8M CRH for the indicated times. […]
Dexamethasone (10^−8M) inhibited the TNFα, IL-1β (FIGS. 6A and B) and PGE2-stimulated NURR1 MRNA in synoviocytes and CRH-induced NURR1 expression in synovium explants. […] For each northern blot shown in FIG. 6, NUR77 mRNA levels were also analyzed. […]
Total RNA was isolated from cultured primary synoviocytes or synovial explants. RNA was quantitated by UV absorption and 10 μg of total RNA were electrophoresed on a standard northern gel and transferred to nylon membrane (BioRad, Richmond, Calif.). […] Blots were exposed to film at −80° C. using intensifying screens and autoradiographic intensity was quantitated using an imaging densitometer.

CRH R1 = details: cited from earlier work
[5] = dexamethasone 10^−8M, cycloheximide 5 µg/ml

Compound: CRH: Corticotropin Releasing Hormone, a major regulator of the hypothalamic pituitary axis (SEEPPISLDLTFHLLREVLEMARAEQLAQQAHSNRKLMEII; ends and bridges not checked; UniProt P06850 154-194, looked up)
- NURR1 mRNA induction in synovium explants (NURR1 mRNA [1]; RA and PsA synovium explants, IL-6 10 ng/ml): rapidly induced
- time to NURR1 mRNA induction (NURR1 mRNA [1]; synovium explants): ≤ 1 h
- time to decline of NURR1 mRNA to basal levels (NURR1 mRNA [1]; synovium explants): ≤ 3 h
- NUR77 mRNA induction in synovium explants (NUR77 mRNA [2]; RA and PsA synovium explants): rapidly induced
- time to NUR77 mRNA induction (NUR77 mRNA [2]; synovium explants): ≤ 1 h
- time to decline of NUR77 mRNA to basal levels (NUR77 mRNA [2]; synovium explants): ≤ 3 h
- NURR1 mRNA levels after stimulation (NURR1 mRNA [3]; 25 μM forskolin): not observed
- NUR77 mRNA levels after stimulation (NUR77 mRNA [4]): not observed

Compound: C[C@@H]1C[C@@H]([C@H](O)CC2CC(=O)NC(=O)C2)C(=O)[C@@H](C)C1 [Cycloheximide, cycloheximide]
- effect on forskolin-induced NURR1 expression (NURR1 mRNA [3]; 25 μM forskolin, dexamethasone 10^−8M pre-treatment 2 h, cycloheximide 5 µg/ml): robustly enhanced
- effect on IL-1β-induced NURR1 mRNA (NURR1 mRNA [3]; dexamethasone 10^−8M): robustly enhanced
- effect on TNFα-stimulated NURR1 mRNA (NURR1 mRNA [3]; TNFα 10 ng/ml, dexamethasone 10^−8M): robustly enhanced
- basal / endogenous NURR1 expression (NURR1 mRNA [3]; [5]): increased
- effect on PGE2-stimulated NURR1 mRNA (NURR1 mRNA [3]; dexamethasone 10^−8M, cycloheximide 5 µg/ml, 1M PGE2 for 1h): robustly enhanced

Compound: COc1ccc2c(c1)c(CC(=O)O)c(C)n2C(=O)c1ccc(Cl)cc1 [indomethacin]
- effect on IL-1β-induced NURR1 mRNA (NURR1 mRNA [3]; dexamethasone 10^−8M): not blocked

Compound: C[C@@H]1C[C@H]2[C@@H]3CCC4=CC(=O)C=C[C@]4(C)[C@@]3(F)[C@@H](O)C[C@]2(C)[C@@]1(O)C(=O)CO [dexamethasone]
- basal / endogenous NURR1 expression (NURR1 mRNA [3]; [5]): no effect

Compound: CCCCN(CC)c1nc(C)nc2c1c(C)c(C)n2-c1c(C)cc(C)cc1C [antalarmin]
- CRH antagonism at sites of inflammation in vivo (CRH R1): clinically effective CRH antagonist at sites of inflammation

Compound: CCCCCCCCCCCCCC(=O)O[C@@H]1[C@@H](C)[C@@]2(O)[C@@H](C=C(CO)C[C@]3(O)C(=O)C(C)=C[C@@H]23)[C@@H]2C(C)(C)[C@]12OC(C)=O [PMA, phorbal myristic acetate, reference compound]
- NURR1 mRNA levels after stimulation (NURR1 mRNA [3]; 25 μM forskolin): no stimulatory effects
- NUR77 mRNA levels after stimulation (NUR77 mRNA [4]): modestly up-regulated
